The Kinase Knowledgebase extract (Sharma et al. 2016)

Biological target: PIK3CD (Human) (UniProt O00329)
Assay: Enzyme Assay

Chain of PIK3CD (Human) (O00329 whole entry, looked up): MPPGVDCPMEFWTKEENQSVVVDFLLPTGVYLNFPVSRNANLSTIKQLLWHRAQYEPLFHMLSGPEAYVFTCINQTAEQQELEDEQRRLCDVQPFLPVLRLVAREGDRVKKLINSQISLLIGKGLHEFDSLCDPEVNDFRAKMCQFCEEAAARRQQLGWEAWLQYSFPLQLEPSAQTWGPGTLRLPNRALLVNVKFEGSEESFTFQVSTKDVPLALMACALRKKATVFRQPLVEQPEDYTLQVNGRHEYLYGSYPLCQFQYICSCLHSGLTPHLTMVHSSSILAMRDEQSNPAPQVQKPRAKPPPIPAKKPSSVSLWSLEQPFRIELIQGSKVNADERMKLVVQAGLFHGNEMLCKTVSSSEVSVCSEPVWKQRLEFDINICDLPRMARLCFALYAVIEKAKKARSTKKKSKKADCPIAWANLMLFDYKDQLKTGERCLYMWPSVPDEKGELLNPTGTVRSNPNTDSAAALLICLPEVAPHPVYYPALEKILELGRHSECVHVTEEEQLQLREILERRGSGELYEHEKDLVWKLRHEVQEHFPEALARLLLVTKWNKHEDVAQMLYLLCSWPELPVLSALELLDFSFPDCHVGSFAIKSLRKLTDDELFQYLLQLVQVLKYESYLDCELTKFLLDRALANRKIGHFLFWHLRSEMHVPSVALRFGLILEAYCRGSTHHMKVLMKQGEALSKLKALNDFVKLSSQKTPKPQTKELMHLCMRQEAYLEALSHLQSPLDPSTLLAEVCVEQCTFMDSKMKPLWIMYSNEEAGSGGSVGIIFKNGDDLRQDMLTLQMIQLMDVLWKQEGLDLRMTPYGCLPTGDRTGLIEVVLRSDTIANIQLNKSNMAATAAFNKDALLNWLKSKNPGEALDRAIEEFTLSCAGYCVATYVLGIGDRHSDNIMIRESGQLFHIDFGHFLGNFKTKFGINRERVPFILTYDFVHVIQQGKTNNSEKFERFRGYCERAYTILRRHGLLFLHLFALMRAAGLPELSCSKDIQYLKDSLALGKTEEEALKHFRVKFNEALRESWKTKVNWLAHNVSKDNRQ

Row | SMILES | IC50
1 | C[C@H](Nc1nc(N)nc(N)c1C#N)c1nc2cccc(Cl)c2c(=O)n1-c1cccc(C(F)F)c1 | ≤ 1 nM
2 | C[C@H](Nc1nc(N)nc(N)c1Cl)c1nc2cccc(Cl)c2c(=O)n1-c1ccccc1 | ≤ 1 nM
3 | C[C@H](Nc1nc(N)nc(N)c1C#N)c1nc2c(C#N)cccc2c(=O)n1-c1cccc(C(F)F)c1 | 1 to 10 nM
4 | CC[C@H](Nc1nc(N)nc(N)c1C#N)c1nc2c(C)ccc(F)c2c(=O)n1-c1cc(F)cc(F)c1 | 10 to 50 nM
5 | C[C@H](Nc1nc(N)nc(N)c1Cl)c1cc2cccc(Cl)c2c(=O)n1-c1ccccc1 | ≤ 1 nM
6 | Cc1cccc2nc([C@H](C)Nc3nc(N)nc(N)c3C#N)n(-c3cc(F)cc(F)c3)c(=O)c12 | ≤ 1 nM
7 | C[C@H](Nc1nc(N)nc(N)c1C#N)c1nc2c(F)ccc(F)c2c(=O)n1-c1cccc(C#N)c1 | 10 to 50 nM
8 | CC[C@H](Nc1nc(N)nc(N)c1C#N)c1nc2c(F)ccc(F)c2c(=O)n1-c1ccccc1 | 1 to 10 nM
9 | C[C@H](Nc1nc(N)nc(N)c1C#N)c1nc2cccc(C(F)F)c2c(=O)n1-c1cc(F)cc(F)c1 | 1 to 10 nM
10 | C[C@H](Nc1nc(N)nc(N)c1C#N)c1nc2cccc(Cl)c2c(=O)n1-c1cccc(CC(F)F)c1 | 1 to 10 nM
11 | C[C@H](Nc1nc(N)nc(N)c1C#N)c1nc2cccc(Cl)c2c(=O)n1-c1cc(F)cc(C#N)c1 | 1 to 10 nM
12 | C[C@H](Nc1nc(N)nc(N)c1C#N)c1nc2cccc(Cl)c2c(=O)n1-c1cc(F)cc(C(F)F)c1 | ≤ 1 nM
13 | C[C@H](Nc1nc(N)nc(N)c1C#N)c1nc2c(F)cccc2c(=O)n1-c1cc(F)cc(F)c1 | 1 to 10 nM
14 | CC[C@H](Nc1nc(N)nc(N)c1C#N)c1nc2cccc(F)c2c(=O)n1-c1cc(F)cc(F)c1 | 1 to 10 nM
15 | CC(C)[C@H](Nc1nc(N)nc(N)c1C#N)c1nc2cccc(Cl)c2c(=O)n1-c1cc(F)cc(F)c1 | 1 to 10 nM
16 | C[C@H](Nc1nc(N)nc(N)c1C#N)c1nc2cccc(C(F)F)c2c(=O)n1-c1cc(F)cc(C(F)F)c1 | 1 to 10 nM
17 | C[C@H](Nc1nc(N)nc(N)c1Cl)c1nc2c(F)ccc(Cl)c2c(=O)n1-c1ccccc1 | 1 to 10 nM
18 | CC[C@H](Nc1nc(N)nc(N)c1C#N)c1nc2cccc(F)c2c(=O)n1-c1cccc(C(F)(F)F)c1 | 10 to 50 nM
19 | C[C@H](Nc1nc(N)nc(N)c1C#N)c1nc2cccc(F)c2c(=O)n1-c1cc(Cl)cc(Cl)c1 | 10 to 50 nM
20 | CC[C@H](C)[C@H](Nc1nc(N)nc(N)c1C#N)c1nc2cccc(Cl)c2c(=O)n1-c1cc(F)cc(F)c1 | 1 to 10 nM

Row | SMILES | IC50
21 | C[C@H](Nc1nc(N)nc(N)c1C#N)c1nc2c(Cl)ccc(F)c2c(=O)n1-c1cc(F)cc(F)c1 | 1 to 10 nM
22 | C[C@H](Nc1nc(N)nc(N)c1C#N)c1nc2cccc(F)c2c(=O)n1-c1cc(F)cc(C(F)F)c1 | 10 to 50 nM
23 | CCC[C@H](Nc1nc(N)nc(N)c1C#N)c1nc2cccc(F)c2c(=O)n1-c1cc(F)cc(F)c1 | 1 to 10 nM
24 | C[C@H](Nc1nc(N)nc(N)c1C#N)c1nc2cccc(F)c2c(=O)n1-c1cc(F)cc(C#N)c1 | 10 to 50 nM
25 | C[C@H](Nc1nc(N)nc(N)c1C#N)c1nc2cccc(C(N)=O)c2c(=O)n1-c1cc(F)cc(F)c1 | 10 to 50 nM
26 | C[C@H](Nc1nc(N)nc(N)c1C#N)c1nc2c(Cl)ccc(Cl)c2c(=O)n1-c1ccccc1 | ≤ 1 nM
27 | CC(C)[C@H](Nc1nc(N)nc(N)c1C#N)c1nc2cccc(Cl)c2c(=O)n1-c1ccccc1 | ≤ 1 nM
28 | C[C@H](Nc1nc(N)nc(N)c1C#N)c1nc2ccc(F)cc2c(=O)n1-c1cccc(C#N)c1 | 10 to 50 nM
29 | Cc1cccc2c(=O)n(-c3cccc(C(F)(F)F)c3)c([C@H](C)Nc3nc(N)nc(N)c3C#N)nc12 | 10 to 50 nM
30 | C[C@H](Nc1nc(N)nc(N)c1C#N)c1nc2c(F)ccc(Cl)c2c(=O)n1-c1cc(F)cc(F)c1 | ≤ 1 nM
31 | Cc1ccc(F)c2c(=O)n(-c3cc(F)cc(F)c3)c([C@H](C)Nc3nc(N)nc(N)c3C#N)nc12 | 1 to 10 nM
32 | CC[C@H](Nc1nc(N)nc(N)c1C#N)c1nc2cccc(F)c2c(=O)n1-c1cc(F)cc(C(F)F)c1 | 10 to 50 nM
33 | COc1cc(F)cc(-n2c([C@H](C)Nc3nc(N)nc(N)c3C#N)nc3cccc(Cl)c3c2=O)c1 | 1 to 10 nM
34 | CC[C@H](Nc1nc(N)nc(N)c1C#N)c1nc2cccc(C(F)F)c2c(=O)n1-c1cc(F)cc(F)c1 | 1 to 10 nM
35 | C[C@H](Nc1nc(N)nc(N)c1C#N)c1nc2cccc(Cl)c2c(=O)n1-c1cc(F)cc(OC(F)(F)F)c1 | 1 to 10 nM
36 | C[C@H](Nc1nc(N)nc(N)c1C#N)c1nc2cccc(C(N)=O)c2c(=O)n1-c1ccccc1 | 1 to 10 nM
37 | CC[C@H](Nc1nc(N)nc(N)c1C#N)c1nc2c(F)cc(F)cc2c(=O)n1-c1cc(F)cc(F)c1 | 10 to 50 nM
38 | Cc1ccc(F)c2nc([C@H](C)Nc3nc(N)nc(N)c3C#N)n(-c3cc(F)cc(F)c3)c(=O)c12 | ≤ 1 nM
39 | CC[C@H](Nc1nc(N)nc(N)c1C#N)c1nc2c(F)cccc2c(=O)n1-c1cc(F)cc(F)c1 | 1 to 10 nM
40 | CC(C)C[C@H](Nc1nc(N)nc(N)c1C#N)c1nc2cccc(Cl)c2c(=O)n1-c1cc(F)cc(F)c1 | 1 to 10 nM

Row | SMILES | IC50
41 | Cc1ccc(F)c2nc([C@H](C)Nc3nc(N)nc(N)c3C#N)n(-c3ccccc3)c(=O)c12 | ≤ 1 nM
42 | C[C@H](Nc1nc(N)nc(N)c1C#N)c1nc2cccc(Cl)c2c(=O)n1-c1c(F)cccc1F | 1 to 10 nM
43 | C[C@H](Nc1nc(N)nc(N)c1C#N)c1nc2c(F)ccc(Cl)c2c(=O)n1-c1cccc(C#N)c1 | 1 to 10 nM
44 | Cc1ccc(F)c2nc([C@H](C)Nc3nc(N)nc(N)c3C#N)n(-c3cc(F)cc(C#N)c3)c(=O)c12 | 1 to 10 nM
45 | C[C@H](Nc1nc(N)nc(N)c1C(N)=O)c1nc2cccc(Cl)c2c(=O)n1-c1cccc(C(F)F)c1 | 1 to 10 nM
46 | C[C@H](Nc1nc(N)nc(N)c1C#N)c1nc2c(C(F)F)cccc2c(=O)n1-c1ccccc1 | 10 to 50 nM
47 | C[C@H](Nc1nc(N)nc(N)c1C#N)c1nc2ccc(F)c(Cl)c2c(=O)n1-c1cc(F)cc(C(F)F)c1 | 10 to 50 nM
48 | C[C@H](Nc1nc(N)nc(N)c1C#N)c1nc2cccc(Br)c2c(=O)n1-c1cccc(F)c1 | ≤ 1 nM
49 | C[C@H](Nc1nc(N)nc(N)c1C#N)c1nc2ccc(F)c(Cl)c2c(=O)n1-c1cccc(C#N)c1 | 10 to 50 nM
50 | C[C@H](Nc1nc(N)nc(N)c1C#N)c1nc2cccc(S(C)(=O)=O)c2c(=O)n1-c1cc(F)cc(C(F)F)c1 | 10 to 50 nM
51 | C[C@H](Nc1nc(N)nc(N)c1C(N)=O)c1nc2cccc(Cl)c2c(=O)n1-c1cc(F)cc(F)c1 | 1 to 10 nM
52 | C[C@H](Nc1nc(N)nc(N)c1C#N)c1nc2cccc(C(F)F)c2c(=O)n1-c1ccccc1 | ≤ 1 nM
53 | C[C@H](Nc1nc(N)nc(N)c1C#N)c1cc2cccc(Cl)c2c(=O)n1-c1ccccc1 | ≤ 1 nM
54 | COc1cc(-n2c([C@H](C)Nc3nc(N)nc(N)c3C#N)nc3cccc(Cl)c3c2=O)ccc1C | 10 to 50 nM
55 | C[C@H](Nc1nc(N)nc(N)c1C#N)c1nc2c(F)ccc(Cl)c2c(=O)n1-c1cc(F)cc(C#N)c1 | 10 to 50 nM
56 | C[C@H](Nc1nc(N)nc(N)c1C#N)c1nc2cccc(F)c2c(=O)n1-c1cc(F)cc(Cl)c1 | 10 to 50 nM
57 | C[C@H](Nc1nc(N)nc(N)c1C#N)c1nc2cccc(Cl)c2c(=O)n1-c1cc(F)cc(C(F)(F)F)c1 | 1 to 10 nM
58 | Cc1ccc(F)c2c(=O)n(-c3ccccc3)c([C@H](C)Nc3nc(N)nc(N)c3C#N)nc12 | 1 to 10 nM
59 | CC[C@H](Nc1nc(N)nc(N)c1C#N)c1nc2ccc(F)c(F)c2c(=O)n1-c1cc(F)cc(F)c1 | 10 to 50 nM
60 | C[C@H](Nc1nc(N)nc(N)c1C#N)c1nc2cccc(Cl)c2c(=O)n1-c1cc(C(F)F)cc(C(F)F)c1 | 1 to 10 nM
